Assays:
[1] = Stability of compound K in human plasma (bench-top, refrigerator, freezer, freeze-thaw, extracted samples); format: in vitro ADME; conditions: n = 3; for Stability of extracted, autosampler (4°C), 20 h: extracted plasma sample; for Compound K in plasma, 4°C, 17 h / Compound K in plasma, room temperature, 17 h / Compound K in plasma, −80°C, 17 h / Freeze-thaw stability, three cycles, −80°C: human plasma
Procedure: The LC-MS/MS method to determine compound K in human and rat plasma was validated and established in terms of specificity, sensitivity, linearity, accuracy, precision, recovery, matrix effect, and stability according to the bioanalytical method validation guidelines published by Korea Food and Drug Administration (KFDA) and USFDA [23, 24]. The specificity of the method towards endogenous plasma matrix substances was assessed in double blank human plasma (without compound K and IS). Double blank samples from six different lots of human blank plasma were tested for the presence of endogenous substances, which may interfere with compound K and IS using described above procedures and chromatographic/spectroscopic conditions. Then, the chromatograms obtained from the sample spiked with compound K at lower limit of quantitation (LLOQ) and IS and actual plasma samples from a volunteer after oral administration of compound K were compared with those obtained from blank samples. The calibration curve was constructed by plotting the peak area ratios (y) of compound K to IS against the spiked concentrations (x) of compound K. Linearity was assessed by weighted (1/x) least squares regression analysis. LLOQ was defined as the lowest concentration on the calibration curve. It should be quantified with an acceptable bias within ±20% and a CV no greater than 20%. The LLOQ was determined as the concentrations with a signal to noise (S/N) ratio of 10. The intra- and interday precision and accuracy assessments were performed on the same day (n = 5, at each concentration) and on three consecutive days at four concentrations ([…]). Precision is expressed as a coefficient of variance (CV) at each concentration. The accuracy of the assay was defined as a percentage of the measured concentration over the theoretical concentration. The acceptance criterion recommended by KFDA and USFDA for each back-calculated standard concentration is 20% deviation from the nominal for LLOQ and 15% for all others (KFDA 2013, USFDA 2013). The relative recovery, absolute matrix effect, and process efficiency were determined at three QC concentrations (3, 300, and 800 ng/mL, n = 3) of compound K and IS (500 ng/mL, n = 9). The relative recovery was measured by comparing the peak areas obtained from plasma samples spiked before extraction with those from plasma samples spiked after extraction. The absolute matrix effect was measured by comparing the peak response of plasma samples spiked after extraction with that of pure standards containing equivalent amounts of compound K and IS prepared in mobile phase. The process efficiency wasmeasured by comparing the peak response of plasma samples spiked before extraction with that of the pure standards containing equivalent amounts of compound K and IS prepared in mobile phase. […] The predicted concentrations of compound K at 3, 300, and 800 ng/mL samples differed by not more than 15% of the nominal concentrations in a set of stability tests, namely, in injector (20 h), bench-top (17 h), three repeated freeze-thaw cycles, and freezer stability at −80°C for 17 h. […] Although several analytical methods have been used to determine compound K concentrations in human plasma with LC-MS/MS using solid phase extraction or protein precipitation, we developed the fully validated analytical method optimized for our laboratory settings to meet both KFDA and USFDA guidelines for validating a bioanalytical method. Our analytical method was successfully used to evaluate the comparative pharmacokinetics of two red ginseng HYFRG or RG extracts in Koreans.

[2] = Stability of compound K working stock solution in methanol; format: physicochemical; conditions: n = 3
Procedure: Stock solutions of compound K and IS were prepared separately by dissolving the accurately weighed compounds in methanol for a final concentration of 1000 μg/mL. The prepared stock solutions were stored in −80°C when not in use. Working solutions of compound K were prepared by serial dilution of the stock solution in methanol. Calibration standards were prepared by spiking 10 μL of the appropriate standard solutions to 190 μL of blank plasma for concentrations of 1, 5, 10, 50, 100, 500, and 1000 ng/mL. QC samples were prepared in the same manner as the calibration standards, for low, middle, and high concentrations of 3, 300, and 800 ng/mL. IS working solution (5 μg/mL) for routine use was freshly prepared by diluting IS stock solution in methanol. The standard and QC samples were extracted on each analysis run using the same procedure described below. […] The specificity of the method towards endogenous plasma matrix substances was assessed in double blank human plasma (without compound K and IS). […] Then, the chromatograms obtained from the sample spiked with compound K at lower limit of quantitation (LLOQ) and IS and actual plasma samples from a volunteer after oral administration of compound K were compared with those obtained from blank samples. The calibration curve was constructed by plotting the peak area ratios (y) of compound K to IS against the spiked concentrations (x) of compound K. Linearity was assessed by weighted (1/x) least squares regression analysis. […] It should be quantified with an acceptable bias within ±20% and a CV no greater than 20%. The LLOQ was determined as the concentrations with a signal to noise (S/N) ratio of 10. […] Precision is expressed as a coefficient of variance (CV) at each concentration. The accuracy of the assay was defined as a percentage of the measured concentration over the theoretical concentration. The acceptance criterion recommended by KFDA and USFDA for each back-calculated standard concentration is 20% deviation from the nominal for LLOQ and 15% for all others (KFDA 2013, USFDA 2013). […]

Stability of extracted, autosampler (4°C), 20 h ([1]; nominal 3 ng/mL): 110.43 ± 12.89%
Compound K in plasma, 4°C, 17 h ([1]; nominal 3 ng/mL): 112.11 ± 5.08%
Compound K in plasma, room temperature, 17 h ([1]; nominal 3 ng/mL): 110.12 ± 3.01%
Compound K in plasma, −80°C, 17 h ([1]; nominal 3 ng/mL): 115.04 ± 2.66%
Freeze-thaw stability, three cycles, −80°C ([1]; nominal 3 ng/mL): 109.09 ± 7.07%
Stability of extracted, autosampler (4°C), 20 h ([1]; nominal 300 ng/mL): 102.96 ± 4.83%
Compound K in plasma, 4°C, 17 h ([1]; nominal 300 ng/mL): 110.62 ± 2.31%
Compound K in plasma, room temperature, 17 h ([1]; nominal 300 ng/mL): 106.83 ± 3.20%
Compound K in plasma, −80°C, 17 h ([1]; nominal 300 ng/mL): 108.30 ± 1.60%
Freeze-thaw stability, three cycles, −80°C ([1]; nominal 300 ng/mL): 109.70 ± 2.38%
Stability of extracted, autosampler (4°C), 20 h ([1]; nominal 800 ng/mL): 103.46 ± 3.48%
Compound K in plasma, 4°C, 17 h ([1]; nominal 800 ng/mL): 107.40 ± 2.45%
Compound K in plasma, room temperature, 17 h ([1]; nominal 800 ng/mL): 107.54 ± 0.20%
Compound K in plasma, −80°C, 17 h ([1]; nominal 800 ng/mL): 104.95 ± 1.42%
Freeze-thaw stability, three cycles, −80°C ([1]; nominal 800 ng/mL): 106.13 ± 5.46%
Working stock solution stability, room temperature, 6 h ([2]; nominal 3 ng/mL): 89.08 ± 3.89%
Working stock solution stability, room temperature, 6 h ([2]; nominal 300 ng/mL): 89.11 ± 7.13%
Working stock solution stability, room temperature, 6 h ([2]; nominal 800 ng/mL): 96.13 ± 7.43%
Compound: CC(C)=CCCC(C)(OC1OC(CO)C(O)C(O)C1O)C1CCC2(C)C1C(O)CC1C3(C)CCC(O)C(C)(C)C3CCC12C [Compound K, 20-O-β-(D-glucopyranosyl)-20(S)-protopanaxadiol]

Source: paper PMC4969531, “Enhanced Absorption Study of Ginsenoside Compound K (20-O-β-(D-Glucopyranosyl)-20(S)-protopanaxadiol) after Oral Administration of Fermented Red Ginseng Extract (HYFRG™) in Healthy Korean Volunteers and Rats” (Evidence-based Complementary and Alternative Medicine : eCAM, 2016)
